Results taken from PubChem BioAssay (NCI).
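All cell lines were grown in 96-well plates and treated with compound for 48 hours. GI50 = concentration required for 50% inhibition of growth. TGI denotes the concentration required for complete inhibition of growth.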

Tests used:
Experiment in all cases: NCI tumour cell line growth inhibition, 48 h
CAKI-1 renal = system: CAKI-1 renal
MDA-MB-435 = system: MDA-MB-435
ACHN renal = system: ACHN renal
HT29 colon = system: HT29 colon
DU-145 prostate = system: DU-145 prostate
HS 578T breast = system: HS 578T breast
SF-539 CNS = system: SF-539 CNS
HL-60(TB) leukemia = system: HL-60(TB) leukemia
OVCAR-4 ovarian = system: OVCAR-4 ovarian
SN12C renal = system: SN12C renal

SMILES | GI50 (CAKI-1 renal) [µM] | TGI (CAKI-1 renal) [µM] | GI50 (MDA-MB-435) [µM] | TGI (MDA-MB-435) [µM] | GI50 (ACHN renal) [µM] | TGI (ACHN renal) [µM] | GI50 (HT29 colon) [µM] | TGI (HT29 colon) [µM] | GI50 (DU-145 prostate) [µM] | TGI (DU-145 prostate) [µM] | GI50 (HS 578T breast) [µM] | TGI (HS 578T breast) [µM] | GI50 (SF-539 CNS) [µM] | TGI (SF-539 CNS) [µM] | GI50 (HL-60(TB) leukemia) [µM] | TGI (HL-60(TB) leukemia) [µM] | GI50 (OVCAR-4 ovarian) [µM] | TGI (OVCAR-4 ovarian) [µM] | GI50 (SN12C renal) [µM] | TGI (SN12C renal) [µM]
Fc1cc2[nH]ncc2c2c3c(c(-c4cn[nH]c4)nc12)CCCC3 | 0.398 | 7.08 | 0.959 | 3.61 | 0.327 | 10.3 | 1.24 | > 100 | 1.09 | 15.5 | 0.624 | 3.46 | 1.14 | 2.82 | 1.81 | 5.53 | 1.69 | 8.14 | 1.06 | 7.04
CN1CCN(CCCn2c(=O)c3sc4ncccc4c3n3nnc(-c4ccccc4)c23)CC1 | 6.16 | 13 | 1.18 | 3.01 | 8.2 | 15.1 | 2.89 | 9.54 | 5.85 | 12.2 | 6.47 | 16 | 5.72 | 13.4 | 0.795 | 1.73 | 7.27 | 14 | 7.2 | 14.2
COc1ccc(-c2nnc(COc3ccc(C(=O)/C=C/c4ccco4)cc3)o2)cc1 | 6.11 | 19.7 | 2.13 | 5.08 | 2.12 | 5.03 | 1.91 | 3.61 | 2.33 | 5.72 | 7.43 | 43.1 | 1.8 | 3.63 | 2.65 | 7.38 | 12.8 | 26.6 | 3.17 | 11.5
C[C@@H]1CCC2[C@@H](C)[C@@H](OCC(CO[C@H]3OC4O[C@@]5(C)CC[C@H]6[C@H](C)CCC([C@H]3C)[C@@]46OO5)OC(=O)CCC(=O)O)OC3O[C@@]4(C)CC[C@@H]1[C@]32OO4 (stereo not given in full) | 0.022 | 0.477 | < 0.0115 | 13 | 0.126 | 17.5 | < 0.01 | > 34.9 | 6.4 | 27.3 | 1.81 | 34.9 | 2.26 | 28.8 | 0.0111 | 0.513 | 0.0583 | 26.3 | 0.374 | 23.4
O=C(Nc1ccc(Cl)cc1)c1cccc(NC2=C(Cl)C(=O)N(Cc3ccccc3)C2=O)c1 | 3.5 | 15.7 | 23.9 | > 100 | 14.4 | 27.5 | 32.4 | > 100 | 6.39 | 19.7 | 13.2 | 46.3 | 4.18 | 19.1 | 4.37 | 18.9 | 12.5 | 34.8 | 7.79 | 24.2
O=c1c2sccc2n(CC2COc3ccccc3O2)c(=O)n1O (stereo not given) | 20.1 | 97.3 | 23.9 | > 100 | 20.5 | > 100 | 24.1 | > 100 | 19.8 | > 100 | 15.1 | > 100 | 15.3 | > 100 | 16.9 | 44.7 | 13.9 | 98.7 | 11.1 | > 100
CC[C@H](Nc1ncnc2nc[nH]c12)c1oc2ccccc2c(=O)c1-c1cccc(F)c1 | 14.7 | > 100 | 18.7 | 70.7 | 21.6 | > 100 | 28.3 | > 100 | 26.9 | > 100 | 14.1 | 86.9 | 31.4 | > 100 | 11 | 42.5 | 23.1 | > 100 | 19.7 | > 100
COc1cccc(-c2nc(-c3ccc(NC(=O)C(C)C)cc3)[nH]c2-c2ccnc(Br)c2)c1 | 2.73 | > 100 | 3.12 | > 100 | 2.74 | > 100 | 3.07 | > 100 | 3.86 | > 100 | 0.548 | 3.93 | 1.78 | 6.56 | 1.56 | 5.24 | 3.54 | > 100 | 3.31 | > 100
N=Nc1c(OC(=O)Nc2cccc(Cl)c2)[nH]c2ccccc12 | – | 15.2 | – | 21.3 | – | 20.3 | – | 17.7 | – | 20.3 | – | 40 | – | 32.6 | – | 30.9 | – | 19.6 | – | 14.8
